Laboratory results as given in publication PMC11587510, “Aromatic Amino Acid Hydroxylases as Off-Targets of Histone Deacetylase Inhibitors” (ACS Chemical Neuroscience, 2024).
Several values for one entry are separate records, joined by “and”; a condition that tells them apart may be missing. Identical values can stand only once. Like-named read-outs stand apart in the source and are kept apart here.

How the values were obtained:
HDAC 8 = conditions: human recombinant HDAC, cited from earlier work
HDAC 6 = conditions: cited from earlier work
human TH isoform 1 (TH1) = biological target: T1, human TH isoform 1 (TH1) (Homo sapiens, UniProt P07101); assay: TH enzyme activity assay (HPLC, L-DOPA); format: biochemical; conditions: best-fit IC50 (± SE), nonlinear regression; N.A. = no activity
T1 construct: Full-length human TH isoform 1 (TH1); His6-ZZ fusion partner (one of the two preparations only) (cleaved yes); made in house; host or cells: E. coli BL21(DE3) pLysS (pET3a) or BL21 CodonPlus (pET-ZZ-1a)
T1 sequence (P07101 1-497 isoform P07101-3): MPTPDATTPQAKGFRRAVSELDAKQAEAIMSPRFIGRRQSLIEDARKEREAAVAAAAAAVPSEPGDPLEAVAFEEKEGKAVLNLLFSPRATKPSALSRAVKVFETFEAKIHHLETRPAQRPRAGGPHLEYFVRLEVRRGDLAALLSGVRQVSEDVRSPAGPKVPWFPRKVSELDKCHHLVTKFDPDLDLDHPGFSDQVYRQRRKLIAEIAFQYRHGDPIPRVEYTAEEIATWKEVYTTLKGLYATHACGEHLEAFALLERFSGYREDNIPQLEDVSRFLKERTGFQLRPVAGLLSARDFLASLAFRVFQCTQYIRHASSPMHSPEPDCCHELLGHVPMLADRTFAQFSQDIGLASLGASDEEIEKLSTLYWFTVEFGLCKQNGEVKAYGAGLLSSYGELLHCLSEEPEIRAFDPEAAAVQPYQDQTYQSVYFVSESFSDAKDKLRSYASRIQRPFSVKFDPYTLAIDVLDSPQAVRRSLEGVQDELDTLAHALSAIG
Method: The activity of purified PAH, TH, TPH1, and TPH2 was measured using high-performance liquid chromatography (HPLC) as previously described.[50],[56],[57]
TH activities were performed in a standard reaction mixture containing 40 mM Hepes (pH 7.0), 0.1 mg/mL catalase, 10 μM ferrous ammonium sulfate, and 50 μM L-Tyr. Compounds were incubated with TH (0.01 mg/mL) in the reaction mixture for 10 min on ice. The enzymatic reaction was initiated by adding 200 μM BH4 and 2 mM DTT (final concentrations) and stopped by precipitation with 2% (v/v) acetic acid in ethanol after 5 min at 37 °C. The product, L-DOPA, was quantified by HPLC utilizing a fluorescence monitor set at 281 and 314 nm for excitation and emission, respectively.
GraphPad Prism (version 10; La Jolla, CA) was used for analyzing the enzyme inhibition data.

HDAC 1 = conditions: cited from earlier work
[1] = biological target: T2, doubly truncated human TPH1 (ΔNH102-ΔCOOH402) (Homo sapiens, UniProt P17752); assay: TPH1 enzyme activity assay (HPLC, 5-OH-Trp); format: biochemical; conditions: for IC50: best-fit IC50 (± SE), nonlinear regression, N.A. = no activity
T2 construct: doubly truncated human TPH1 (ΔNH102-ΔCOOH402); made in house; host or cells: E. coli BL21(DE3)
T2 sequence (P17752 102-402, stated change not applied): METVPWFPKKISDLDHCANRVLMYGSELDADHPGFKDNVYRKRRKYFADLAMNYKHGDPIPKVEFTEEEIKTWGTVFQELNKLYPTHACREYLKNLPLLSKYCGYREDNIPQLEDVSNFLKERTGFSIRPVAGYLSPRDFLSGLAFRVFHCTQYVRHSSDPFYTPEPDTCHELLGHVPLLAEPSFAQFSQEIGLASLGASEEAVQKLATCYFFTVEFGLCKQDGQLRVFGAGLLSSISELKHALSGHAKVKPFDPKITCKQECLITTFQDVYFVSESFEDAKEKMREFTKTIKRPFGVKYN
Method: (§1) TPH1 enzymatic activity assays were performed with the selected hits from the DSF screening in the presence and absence of 50 μM of each compound. The final concentration of DMSO was 0.5% (v/v), and control experiments used 0.5% DMSO in the absence of ligand. Assays were performed in a standard reaction mixture containing 40 mM Hepes pH 7.0, 200 mM NaCl, 0.1 mg/mL catalase, 0.5 mg/mL BSA, 10 μM ferrous ammonium sulfate, and 30 μM L-tryptophan (L-Trp). Compounds were incubated with TPH1 (0.02 mg/mL) in the reaction mixture for 10 min on ice.

TPH1 = biological target: T3, TPH1 (Homo sapiens, UniProt P17752); assay: Differential scanning fluorimetry (DSF) thermal stability assay; format: binding; conditions: for Tm (°C) ± SD (°C), primary screen: 0.075 mg/mL TPH1, 0.5% DMSO, three independent measurements (a: duplicates); for Kd: estimated from DSF dose-response, 2% DMSO, read-out: apparent KD (μM), dose-response
T3 construct: doubly truncated human TPH1 (ΔNH102-ΔCOOH402); made in house; host or cells: E. coli BL21(DE3)
T3 sequence (P17752 102-402): as the sequence (P17752 102-402, stated change not applied) above
Method: A fluorescence-based thermal stability assay (differential scanning fluorimetry, DSF) was used for testing the effects of HDIs on the thermal stability of TPH1.
For initial high throughput screening (HTS), compounds were prepared at a concentration of 10 mM (in some cases, 5 mM) in 100% DMSO. Initial HTS screening was performed on TPH1 with and without compounds using a LightCycler 480 Real-Time PCR System (Roche Applied Science). TPH1 was diluted to 0.075 mg/mL in 50 mM Tris pH 8.0, 200 mM NaCl, 0.5 mM TCEP, and 5% glycerol with 5x SYPRO Orange. Compounds were added to a final concentration of 50 μM. Controls with 0.5% DMSO were performed on each 384-well microplate. Unfolding curves were recorded from 20 to 95 °C at a scan rate of 2 °C/min and monitored at excitation = 465 nm and emission = 610 nm. Selected hits were validated further by serial dilution from 250 μM to 122 nM, keeping the DMSO concentration constant at 2%.
DSF data were analyzed using HTSDSF Explorer.[55] Melting temperature (Tm) was calculated from the maximum value of the first derivative of the unfolding curve. ΔTm (Tm with compound–averaged Tm in DMSO controls) was plotted for all validated curves and a threshold of 2 °C was set (typically, cutoff at ΔTm = 3-fold the SD of the Tm of the DMSO control).
Preliminary binding constants (KD) were calculated by fitting data to the equation [drawing 1] where ΔH0 is the enthalpy of the unfolding of the protein in the presence of ligand ([L]), and R is the gas constant.

human TPH2 = biological target: T4, human TPH2 (Homo sapiens, UniProt Q8IWU9); assay: TPH2 enzyme activity assay (HPLC); format: biochemical; conditions: best-fit IC50 (± SE), nonlinear regression; N.A. = no activity
T4 construct: Full-length human TH isoform 1 (TH1), human PAH, human TPH2, and doubly truncated human TPH1; MBP (cleaved yes); made in house; host or cells: E. coli BL21(DE3)
T4 sequence (Q8IWU9 1-490): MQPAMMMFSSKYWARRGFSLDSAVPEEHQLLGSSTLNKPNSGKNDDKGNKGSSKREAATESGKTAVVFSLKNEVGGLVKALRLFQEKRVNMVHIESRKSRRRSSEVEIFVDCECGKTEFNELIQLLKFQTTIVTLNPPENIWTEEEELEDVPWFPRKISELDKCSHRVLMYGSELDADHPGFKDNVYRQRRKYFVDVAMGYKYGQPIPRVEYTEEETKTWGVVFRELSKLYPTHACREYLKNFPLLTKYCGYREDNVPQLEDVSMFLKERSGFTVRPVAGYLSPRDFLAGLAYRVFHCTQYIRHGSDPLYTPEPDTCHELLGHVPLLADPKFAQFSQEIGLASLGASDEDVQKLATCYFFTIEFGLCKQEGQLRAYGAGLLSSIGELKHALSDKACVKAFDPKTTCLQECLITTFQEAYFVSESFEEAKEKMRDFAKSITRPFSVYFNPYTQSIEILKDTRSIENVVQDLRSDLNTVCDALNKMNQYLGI
Method: as §1

human PAH = biological target: T5, human PAH (Homo sapiens, UniProt P00439); assay: PAH enzyme activity assay (HPLC, L-Tyr); format: biochemical; conditions: best-fit IC50 (± SE), nonlinear regression; N.A. = no activity; read-out: IC50 (μM) PAH
T5 construct: Full-length human TH isoform 1 (TH1), human PAH, human TPH2, and doubly truncated human TPH1; made in house; host or cells: E. coli TB1
T5 sequence (P00439 1-452): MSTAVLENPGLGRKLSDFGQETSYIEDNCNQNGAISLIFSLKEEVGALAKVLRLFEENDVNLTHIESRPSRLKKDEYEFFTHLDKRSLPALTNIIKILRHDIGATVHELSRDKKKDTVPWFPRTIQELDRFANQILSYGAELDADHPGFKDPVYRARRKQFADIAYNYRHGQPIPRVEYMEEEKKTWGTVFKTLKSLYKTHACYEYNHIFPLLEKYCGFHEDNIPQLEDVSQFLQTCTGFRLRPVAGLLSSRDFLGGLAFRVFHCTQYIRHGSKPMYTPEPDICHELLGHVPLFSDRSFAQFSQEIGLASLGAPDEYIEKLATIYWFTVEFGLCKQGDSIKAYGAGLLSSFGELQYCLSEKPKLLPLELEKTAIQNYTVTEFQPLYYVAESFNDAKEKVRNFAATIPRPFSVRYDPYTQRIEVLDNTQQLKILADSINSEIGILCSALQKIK

[2] = human recombinant HDAC, ref 1 (PMID: 26443078)

Row | inhibition at 50 µM ([1]; compound 50 μM, 0.5% DMSO) | ΔTm at 50 µM (TPH1; DSF, 50 μM compound, vs averaged Tm of 0.5% DMSO controls, read-out: ΔTm (°C) ± SD (°C), primary screen) | Structure (SMILES) | IC50 (HDAC 8; ref 4 (PMID: 34392190)) | HDAC 6 % inhibition @ 1 μM (HDAC 6; @ 1 μM, ref 4 (PMID: 34392190)) | IC50 (human TH isoform 1 (TH1)) | HDAC 1 % inhibition @ 1 μM (HDAC 1; @ 1 μM, ref 4 (PMID: 34392190)) | IC50 [1] | inhibition of TPH1 activity at 50 μM ([1]; compound 50 μM, 0.5% DMSO) | Tm (°C) ± SD (°C), primary screen (TPH1; DSF, 50 μM compound) | ΔTm (°C) ± SD (°C), primary screen (TPH1; DSF, 50 μM compound, vs averaged Tm of 0.5% DMSO controls) | Kd (TPH1) | IC50 (human TPH2) | IC50 (human PAH) | IC50 (HDAC 8; ref 1 (PMID: 26443078)) | IC50 (HDAC 6; [2]) | IC50 (HDAC 1; [2])
1 |  |  | O=C(NO)c1ccc(Cl)c(C(=O)Nc2ccc(Cl)cc2)c1 [EG22, 4-Chloro-3-(4-chlorophenylcarbamoyl)-N-hydroxybenzamide] | 0.18 ± 0.05 µM | 94 ± 4% | 14.7 µM | 20 ± 1% | 35.8 µM | more than 50% | 59.4 ± 0.3 °C | 3.9 ± 0.2 °C | 15.2 µM | 10.7 µM | 0.89 µM and 0.9 µM |  |  | 
2 | > 50% | […] | Cc1[nH]c2ccccc2c1CCNCc1ccc(/C=C/C(=O)NO)cc1 [panobinostat, reference compound] |  |  | 8.67 µM and 8.7 µM |  | […] |  | 56.0 ± 0.0 °C |  | 15.6 µM | 43.6 µM | 0.57 µM and 0.6 µM | […] | […] | […]
